Reference: patent publication US4460576A, “Peptide and hormone agent containing the same as effective ingredient” (Kaken Pharmaceutical Co., Ltd., priority 1982, dated 1984)
“And” between values parts separate entries of the source, which are not always exact repeats. Identical values can stand only once. Positions of bridges follow the written chain, without caps; N, C: chain ends. Residues, ends and D or L forms follow the SMILES beside them. No end group written: not given here.

How the values were obtained:
[1] = tested on: Male Wistar rats; assay: GH-releasing activity of [Gln^16 ]--GH--RH in vivo, plasma GH by RIA (Pharmacological Test Example 3); set-up: species or system rat; settings: for GH Concentration, individual rats / GH Concentration Mean ± S.E.: plasma; for GH Concentration, individual rats: rats G, H, I, J, K, L in order; for GH Concentration Mean ± S.E.: procedure of Test Example 2, six rats G to L
Method: Male Wistar rats of 10 weeks old were used. The rats were anesthetized with pentobarbital administered intraperitoneally (i.p.) in a dosage of 50 mg./kg. and fixed. Silastic tube (Dow Corning 0.020 in I.D., by 0.037 in O.D.) cannula of 3.5 cm was inserted to the heart side of right jugular vein in the rat. In the rat with chronic vein-cannula in plant, the other side of the cannula was taken out by 3 cm. from backside of neck and fixed on outer layer of skin.
From the cannula was injected 0.5 ml. of 20 units/ml. heparin, and then the cannula was pluged with a stainless-steel wire stopper. The rats were subjected to injecting of GH--RH and blood-gathering under non-anesthetic condition on the next day. Chlorpromazine hydrochloride was administered i.p. before 4 hrs. of injection in a dosage of 2 mg./kg. Four rats (D to G) received injection from the cannula of 440 μg./kg. of GH--RH obtained from salmon in Example 1. Three rats (A to C) received physiological saline as a control.
From each rat, 0.5 ml. of blood was gathered before 15 minutes of injection and after 15, 30, 60, 120 and 180 minutes of injection.
The gathered blood was centrifuged at 2,000×g for 10 minutes. For measuring GH-releasing activity, the supernatant (plasma) was assayed by means of a radio immuno assay (hereinafter referred to as "RIA") according to a double antibody method (see C. A. Birge et al Endocrinology 81, p.195 (1967)). The RIA of rat GH was carried out by employing NIH kit. The results are shown in Table 4 and FIG. 8 in which symbols A to G described in Table 4 correspond to those described in FIG. 8.
The procedure of Pharmacological Test Example 2 was repeated except that six rats were used, respectively, as to the group receiving [Gln^16 ]--GH--RH and as to the group receiving physiological saline and the blood-gathering was carried out before 15 minutes of injection and after 15, 30, 60, 120, 180, 240 and 300 minutes, respectively, of injection.

[2] = R. Guillemin et al, Science, 218, p.585 (1982); cited from earlier work
[3] = tested on: anterior pituitaries obtained from male Wistar Rats; assay: GH release from pieces of rat anterior pituitaries on a column, radioimmunoassay (Pharmacological Test Example 1); format: cell-based
Method: Small pieces of anterior pituitaries obtained from male Wistar Rats were placed on top of a column being an injection cylinder having one […] diameter packed with 0.3 to 0.5 ml. of Sephadex G 25 equilibrated with a Krebs-Ringer buffer solution containing 0.1% calf serum at a flow rate of 0.5 ml./min. On the column were chromatographed 1 ml. of a control solution (a Klebs-Ringer buffer solution), 1 ml. of 2 μg./ml. solution of TRH and 1 ml. of 2 μg./ml. solution of the GH--RH obtained in Example 1 in that order. The column effluent was collected in 1 ml.-fractions and each fraction was analyzed by means of a radioimmunoassay with an anti-rat GH antibody (NIH standard) to determine an amount of the released rat GH in the assay.

Molecule: CSCC[C@@H]1NC(=O)[C@@H](NC(=O)[C@H](CCCNC(=N)N)NC(=O)[C@H](CCSC)NC(=O)[C@@H](NC(=O)[C@@H](N)CC(=O)O)[C@@H](C)O)CSSC[C@@H](C(=O)N[C@@H](Cc2c[nH]c3ccccc23)C(=O)N[C@@H](CCC(N)=O)C(=O)N[C@H](C(=O)O)C(C)C)NC(=O)[C@@H]2CCCN2C(=O)[C@H](CCCNC(=N)N)NC(=O)[C@H](Cc2ccc(O)cc2)NC(=O)[C@H](C(C)C)NC(=O)[C@H](CCCNC(=N)N)NC(=O)CNC(=O)[C@H](C(C)C)NC1=O [[Gln^16]--GH--RH] (H-DTMRCMVGRVYRPCWQV-OH; disulfide 5-14)
- increase of GH concentration in plasma compared with the control group ([1]; FIG. 9): evident increase of GH concentration in plasma was observed from 30 to 60 minutes after injection
- GH Concentration, individual rats ([1]; 15 min after injection): 10.04 μIU/ml. and 9.76 μIU/ml. and 7.20 μIU/ml. and 11.52 μIU/ml. and 7.64 μIU/ml. and 8.08 μIU/ml.
- GH Concentration, individual rats ([1]; 30 min after injection): 9.80 μIU/ml. and 7.72 μIU/ml. and 34.84 μIU/ml. and 8.36 μIU/ml. and 30.68 μIU/ml. and 57.80 μIU/ml.
- GH Concentration, individual rats ([1]; 60 min after injection): 56.52 μIU/ml. and 47.00 μIU/ml. and 63.40 μIU/ml. and 115.36 μIU/ml. and 21.48 μIU/ml. and 44.88 μIU/ml.
- GH Concentration, individual rats ([1]; 120 min after injection): 22.48 μIU/ml. and 29.32 μIU/ml. and 23.56 μIU/ml. and 18.08 μIU/ml. and 13.24 μIU/ml. and 11.52 μIU/ml.
- GH Concentration, individual rats ([1]; 180 min after injection): 10.08 μIU/ml. and 9.72 μIU/ml. and 10.56 μIU/ml. and 10.24 μIU/ml. and 9.48 μIU/ml. and 8.20 μIU/ml.
- GH Concentration, individual rats ([1]; 240 min after injection): 25.84 μIU/ml. and 8.36 μIU/ml. and 30.00 μIU/ml. and 36.48 μIU/ml. and 7.80 μIU/ml. and 11.52 μIU/ml.
- GH Concentration, individual rats ([1]; 300 min after injection): 12.36 μIU/ml. and 12.08 μIU/ml. and 10.32 μIU/ml. and 16.64 μIU/ml. and 12.96 μIU/ml. and 10.76 μIU/ml.
- GH Concentration, individual rats ([1]; -15 min (before injection)): 10.52 μIU/ml. and 9.36 μIU/ml. and 8.56 μIU/ml. and 6.32 μIU/ml. and 7.20 μIU/ml. and 8.96 μIU/ml.
- GH Concentration Mean ± S.E. ([1]; 15 min after injection): 9.04 ± 0.68 μIU/ml.
- GH Concentration Mean ± S.E. ([1]; 30 min after injection): 24.87 ± 8.19 μIU/ml.
- GH Concentration Mean ± S.E. ([1]; 60 min after injection): 58.11 ± 12.84 μIU/ml.
- GH Concentration Mean ± S.E. ([1]; 120 min after injection): 19.70 ± 2.75 μIU/ml.
- GH Concentration Mean ± S.E. ([1]; 180 min after injection): 9.71 ± 0.34 μIU/ml.
- GH Concentration Mean ± S.E. ([1]; 240 min after injection): 20.00 ± 5.04 μIU/ml.
- GH Concentration Mean ± S.E. ([1]; 300 min after injection): 12.52 ± 0.92 μIU/ml.
- GH Concentration Mean ± S.E. ([1]; -15 min (before injection)): 8.49 ± 0.62 μIU/ml.
- GH-releasing effect ([1]; rats in vivo): has a GH-releasing effect

Molecule: hpGRF: GH-releasing factor isolated from human pancreatic cancer (YADAIFTNSYRKVLGQLSARKLLQDIMSRQQGESNQERGARARL; ends and bridges not checked; UniProt P01286 32-75, looked up)
- time after injection at which increase of GH is shown [2]: 5 min

Molecule: thyrotropic releasing hormone [TRH]
- Amount of Released Rat GH ([3]; 1 ml. of 2 μg./ml. solution on the column, RIA with anti-rat GH antibody): 300 ng/mL
- releasing manner of GH ([3]; elution profile of released GH): broad
